Data: patent publication US11634447B2 (priority 2012, dated 2023)
pIC50, pKd: −log10 of the molar value. “And” between values parts separate entries of the source, which are not always exact repeats. Equal values may be shown once.

The molecules below were run against T1, FimH-CRD (Escherichia coli, UniProt P08191) (assay: Competitive binding assay by fluorescence polarization, assay 1 (compounds prepared by manual dilution)). Conditions: Assay 1 Kd, 5 nM Alexa 647 mannoside probe, 60 nM FimH-CRD, replicate values in one cell.
T1 construct: The first 177 amino acids of the FimH protein are expressed as a fusion protein; thrombin tag (printed as 'fusion protein with thrombin') (cleaved yes); made in house; host or cells: bacteria (pET21b plasmid)
T1 sequence (P08191 22-177): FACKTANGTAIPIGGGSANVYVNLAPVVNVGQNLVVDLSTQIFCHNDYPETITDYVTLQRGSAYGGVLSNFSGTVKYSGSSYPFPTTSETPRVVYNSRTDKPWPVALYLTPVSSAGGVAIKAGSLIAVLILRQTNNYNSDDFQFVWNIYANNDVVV
Set-up: species or system E. coli
Experimental: The first 177 amino acids of the FimH protein are expressed as a fusion protein with thrombin in a pET21b plasmid in bacteria. This FimH protein sequence contains the carbohydrate recognition domain (CRD) and shall be termed FimH-CRD. Following bacterial expression of the protein, the FimH-CRD protein is purified to homogeneity and the thrombin tag removed by protease cleavage. A competitive binding assay by fluorescence polarization is performed using 5 nM of the Alexa 647 mannoside probe and 60 nM of the FimH-CRD. The samples are assayed in a low volume 384 well microtiter plate in a final volume of 20 μl. The final assay buffer conditions are the following, 50 mM Tris-Cl, ph 7.0, 100 mM NaCl, 1 mM EDTA, 5 mM β-mercaptoethanol, 0.05% BSA and 2.5% DMSO. Two assays are performed for FimH, termed assay 1 or assay 2. The assay conditions are the same for both assays except the following: assay 1 has compounds prepared by manual dilution in a serial dilution factor with 12-point dose response while assay 2 has compounds prepared by a robotics system also through a serial dilution factor (12 point dose response) and initially prepared in duplicate in 384 well-Corning polypropylene round bottom plates. The assay 2 plates have compound which is then frozen and must be thawed prior to use. Initially the Alexa 647 probe and the FimH-CRD are added to the assay buffer and then 0.5 μl of test compound (assay 1 or 2) between 0.4 nM to 75 μM final concentration are added (12 point titration with 3-fold serial dilution). Control wells for the Alexa 647 probe are prepared with the same conditions except for the addition of the FimH-CRD protein. Plates are then incubated for 5 hrs at room temperature in the dark and under humid conditions to prevent drying. Plates are read using the SpectraMax Paradigm multi-mode plate reader and the appropriate fluorescent polarization detection cartridge (Alexa-647).
Alexa 647 mannoside probe is prepared using the similar procedure reported for FAM mannoside (Han, Z. et. al., 2010, J. Med. Chem., 53, 4779) and is described in the scheme below.
To a blue colored stirred solution of (2S,3S,4S,5S,6R)-2-(4-aminobutoxy)-6-(hydroxymethyl)tetrahydropyran-3,4,5-triol (2.21 mg, 0.009 mmol) and the (2E)-2-[(2E,4E)-5-[3,3-dimethyl-5-sulfonato-1-(3-sulfonatopropyl)indol-1-ium-2-yl]penta-2,4-dienylidene]-3-[6-(2,5-dioxopyrrolidin-1-yl)oxy-6-oxo-hexyl]-3-methyl-1-(3-sulfonatopropyl)indoline-5-sulfonate (Potassium Ion (3)) (4.9 mg, 0.0044 mmol) in DMF (44 μL) is added Et3N (5.4 mg, 7.0 μL, 0.053 mmol) at RT. The solution is stirred at room temperature over night, concentrated, dissolved in water and purified on 12 g C-18 silica gel cartridge on Isolera system using acetonitrile in water (0 to 40%, 10 CV) and followed by lyophilization to afford Alexa 647 mannoside probe (3.3 mg, 34%) as deep blue solid.
The Kd values of the compounds are determined from dose response curves using twelve concentrations per compound in duplicate. Curves are fitted to data points using Fluorescence Polarization competitive displacement analysis, and Kds are interpolated from the resulting curves using GraphPad Prism software, version […] (GraphPad software Inc., San Diego, Calif., USA).
For O=C(NCCNC(=O)c1cccc([C@H]2O[C@H](CO)[C@@H](O)[C@H](O)[C@@H]2O)c1)c1cccc([C@H]2O[C@H](CO)[C@@H](O)[C@H](O)[C@@H]2O)c1 [Compound 8, (R,R,S,R,S)-N,N′-(Ethane-1,2-diyl)bis(3-((2R,3S,4R,5S,6R)-3,4,5-trihydroxy-6-(hydroxymethyl)tetrahydro-2H-pyran-2-yl)benzamide)], the pKd was 7.80 and 7.72. With OC[C@H]1O[C@H](C/C=C/c2ccc(C#Cc3ccc([C@H]4O[C@H](CO)[C@@H](O)[C@H](O)[C@@H]4O)cc3)cc2)[C@@H](O)[C@@H](O)[C@@H]1O [Compound 34, ((2R,3 S,4R,5S,6R)-2-(Hydroxymethyl)-6-[(E)-3-[4-[2-[4-[(2R,3S,4R,5S,6R)-3,4,5-trihydroxy-6-(hydroxymethyl)tetrahydropyran-2-yl]phenyl]ethynyl]phenyl]allyl]tetrahydropyran-3,4,5-triol)] the pKd was > 8.30 and 8.22. For O=C(Nc1ccc(NC(=O)c2cccc([C@H]3O[C@H](CO)[C@@H](O)[C@H](O)[C@@H]3O)c2)cc1)c1cccc([C@H]2O[C@H](CO)[C@@H](O)[C@H](O)[C@@H]2O)c1 [Compound 7, (3-[(2R,3S,4R,5S,6R)-3,4,5-Trihydroxy-6-(hydroxymethyl)tetrahydropyran-2-yl]-N-[4-[[3-[(2R,3S,4R,5S,6R)-3,4,5-trihydroxy-6-(hydroxymethyl)tetrahydropyran-2-yl]benzoyl]amino]phenyl]benzamide)], the pKd was 7.77 and 7.96. In the case of Cc1cc(/C=C/C[C@H]2O[C@H](CO)[C@@H](O)[C@H](O)[C@@H]2O)cc(C)c1/C=C/C[C@H]1O[C@H](CO)[C@@H](O)[C@H](O)[C@@H]1O [Compound 31, ((2R,3S,4R,5S,6R)-2-[(E)-3-[3,5-Dimethyl-4-[(E)-3-((2R,3S,4R,5S,6R)-3,4,5-trihydroxy-6-(hydroxymethyl)tetrahydropyran-2-yl]prop-1-enyl]phenyl]allyl]-6-(hydroxymethyl)tetrahydropyran-3,4,5-triol)], the pKd was > 8.30. With CC(C)Oc1ccc([C@H]2O[C@H](CO)[C@@H](O)[C@H](O)[C@@H]2O)cc1[C@H]1O[C@H](CO)[C@@H](O)[C@H](O)[C@@H]1O [Compound 4] the pKd was 7.17 and 7.02.

Same assay, conditions: read-out: Assay 1 Kd, 5 nM Alexa 647 mannoside probe, 60 nM FimH-CRD, replicate values in one cell
Cc1cc(/C=C/C[C@H]2O[C@H](CO)[C@@H](O)[C@H](O)[C@@H]2O)cc(C)c1/C=C/C[C@H]1O[C@H](CO)[C@@H](O)[C@H](O)[C@@H]1O [Compound 31, ((2R,3S,4R,5S,6R)-2-[(E)-3-[3,5-Dimethyl-4-[(E)-3-((2R,3S,4R,5S,6R)-3,4,5-trihydroxy-6-(hydroxymethyl)tetrahydropyran-2-yl]prop-1-enyl]phenyl]allyl]-6-(hydroxymethyl)tetrahydropyran-3,4,5-triol)] was tested, and the pKd was > 8.30.

What follows are molecules tested on bacterial strain LF82 binding to the glycoprotein BSA-(Mannose)3 (assay: Bacterial Binding Assay (BBA)). Conditions: read-out: Bacterial Binding Assay IC50, LF82/Luciferase strain binding to BSA-(Man)3 coated plates, luminescence.
Type: cell-based, Escherichia coli
In short: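 Inhibition of LF82/luciferase E. coli adhesion is read as luminescence after washing off unbound cells. Compound and bacteria (10^7 per well) are co-incubated 40-75 min at room temperature on wells coated with 0.5-2 μg/mL BSA-(Man)3, with BSA-only wells as background; IC50 values derived.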
For O=C(c1c(C#C[C@H]2O[C@H](CO)[C@@H](O)[C@H](O)[C@@H]2O)ccc2c1C1(CCNCC1)c1cc(C#C[C@H]3O[C@H](CO)[C@@H](O)[C@H](O)[C@@H]3O)ccc1-2)C1CC1(F)F (stereo partly drawn) [Compound 235, [2,7-bis[2-[(2R,3S,4R,5S,6R)-3,4,5-trihydroxy-6-(hydroxymethyl)tetrahydropyran-2-yl]ethynyl]spiro[fluorene-9,4piperidine]-1yl]-(2,2-difluorocyclopropyl)methanone], the pIC50 was 10.52. Work on O=C(c1c(C#C[C@H]2O[C@H](CO)[C@@H](O)[C@H](O)[C@@H]2O)ccc2c1C1(CCNCC1)c1cc(C#C[C@H]3O[C@H](CO)[C@@H](O)[C@H](O)[C@@H]3O)ccc1-2)C1(O)CC1 [Compound 227, [2,7-bis[2-[(2R,3S,4R,5S,6R)-3,4,5-trihydroxy-6-(hydroxymethyl)tetrahydropyran-2-yl]ethynyl]spiro[fluorene-9,4piperidine]-1yl]-(1hydroxycyclopropyl)methanone] yielded a pIC50 of 10.22. OC[C@H]1O[C@H](c2ccc(-c3ccc(-c4ccc([C@H]5O[C@H](CO)[C@@H](O)[C@H](O)[C@@H]5O)cc4)cc3)cc2)[C@@H](O)[C@@H](O)[C@@H]1O [Compound 65] gave a pIC50 of 7.26. Work on OC[C@H]1O[C@H](C#Cc2csc3c(C#C[C@H]4O[C@H](CO)[C@@H](O)[C@H](O)[C@@H]4O)csc23)[C@@H](O)[C@@H](O)[C@@H]1O [Compound 132, (2R,3S,4R,5S,6R)-2-(hydroxymethyl)-6-[2-[6-[2-[(2R,3S,4R,5S,6R)-3,4,5-trihydroxy-6-(hydroxymethyl)tetrahydropyran-2-yl]ethynyl]thieno[3,2-b]thiophen-3-yl]ethynyl]tetrahydropyran-3,4,5-triol] yielded a pIC50 of 7.28. Cc1cc(N2CC(=O)N(c3ccc([C@H]4O[C@H](CO)[C@@H](O)[C@H](O)[C@@H]4O)c(C)c3)CC2=O)ccc1[C@H]1O[C@H](CO)[C@@H](O)[C@H](O)[C@@H]1O [Compound 172, 1,4-bis[3-methyl-4-[(2R,3S,4R,5S,6R)-3,4,5-trihydroxy-6-(hydroxymethyl)tetrahydropyran-2-yl]phenyl]piperazine-2,5-dione] was tested, and the pIC50 was 6.73. Work on OCCC1(O)c2cc(C#C[C@H]3O[C@H](CO)[C@@H](O)[C@H](O)[C@@H]3O)ccc2-c2ccc(C#C[C@H]3O[C@H](CO)[C@@H](O)[C@H](O)[C@@H]3O)cc21 [Compound 216, (2R,3S,4R,5S,6R)-2-[2-[9-hydroxy-9-(2-hydroxyethyl)-7-[2-[(2R,3S,4R,5S,6R)-3,4,5-trihydroxy-6-(hydroxymethyl)tetrahydropyran-2-yl]ethynyl]fluoren-2-yl]ethynyl]-6-(hydroxymethyl)tetrahydropyran-3,4,5-triol] yielded a pIC50 of 8.00. CC(C)(C)C(=O)N1CCC2(CC1)c1cc(C#C[C@H]3O[C@H](CO)[C@@H](O)[C@H](O)[C@@H]3O)ccc1-c1ccc(C#C[C@H]3O[C@H](CO)[C@@H](O)[C@H](O)[C@@H]3O)cc12 [Compound 228, 1-[2,7-bis[2-[(2R,3S,4R,5S,6R)-3,4,5-trihydroxy-6-(hydroxymethyl)tetrahydropyran-2-yl]ethynyl]spiro[fluorene-9,4piperidine]-1yl]-2,2-dimethyl-propan-l-one] gave a pIC50 of 9.36. In the case of OC[C@H]1O[C@H](C#Cc2cc(F)c(C#C[C@H]3O[C@H](CO)[C@@H](O)[C@H](O)[C@@H]3O)c(F)c2)[C@@H](O)[C@@H](O)[C@@H]1O [Compound 93, (2R,3S,4R,5S,6R)-2-[2-[3,5-difluoro-4-[2-[(2R,3S,4R,5S,6R)-3,4,5-trihydroxy-6-(hydroxymethyl)tetrahydropyran-2-yl]ethynyl]phenyl]ethynyl]-6-(hydroxymethyl)tetrahydropyran-3,4,5-triol], the pIC50 was 7.06. For O=C1CC[C@@H](C(=O)c2c(C#C[C@H]3O[C@H](CO)[C@@H](O)[C@H](O)[C@@H]3O)ccc3c2C2(CCNCC2)c2cc(C#C[C@H]4O[C@H](CO)[C@@H](O)[C@H](O)[C@@H]4O)ccc2-3)N1 [Compound 244, (5S)-5-[2,7-bis[2-[(2R,3S,4R,5S,6R)-3,4,5-trihydroxy-6-(hydroxymethyl)tetrahydropyran-2-yl]ethynyl]spiro[fluorene-9,4piperidine]-1carbonyl]pyrrolidin-2-one], the pIC50 was 9.62. In the case of CC(C)C1(O)c2cc(C#C[C@H]3O[C@H](CO)[C@@H](O)[C@H](O)[C@@H]3O)ccc2-c2ccc(C#C[C@H]3O[C@H](CO)[C@@H](O)[C@H](O)[C@@H]3O)cc21 [Compound 165, (2R,3S,4R,5S,6R)-2-[2-[9-hydroxy-9-isopropyl-7[2-[(2R,3S,4R,5S,6R)-3,4,5-trihydroxy-6-(hydroxymethyl)tetrahydropyran-2-yl]ethynyl]fluoren-2-yl]ethynyl]-6-(hydroxymethyl)tetrahydropyran-3,4,5-triol], the pIC50 was 8.62. With O=C(O)CCC1(CCO)c2cc(C#C[C@H]3O[C@H](CO)[C@@H](O)[C@H](O)[C@@H]3O)ccc2-c2ccc(C#C[C@H]3O[C@H](CO)[C@@H](O)[C@H](O)[C@@H]3O)cc21 [Compound 219, 3-[9-(2-hydroxyethyl)-2,7-bis[2-[(2R,3S,4R,5S,6R)-3,4,5-trihydroxy-6-(hydroxymethyl)tetrahydropyran-2-yl]ethynyl]fluoren-9-yl]propanoic acid] the pIC50 was 8.42.
